Experimental findings from US8232267B2, “Porphyrin catalysts and methods of use thereof” (The Trustees of Princeton University, priority 2006, dated 2012) are described below.

The assay in a line: Stopped-flow spectrophotometric analysis of kinetics of peroxynitrite decomposition. In kind it is biochemical. The settings on record: 100 mM phosphate buffer pH 7.4, 25° C. The text has this:
Peroxynitrite was synthesized from hydrogen peroxide and nitrous acid using an sp250i syringe pump by modification of published procedures. See, Shimanovich, R.; Groves, J. T., Mechanisms of Peroxynitrite Decomposition Catalyzed by FeTMPS, a Bioactive Sulfonated Iron Porphyrin. Archives of Biochemistry and Biophysics 2001, 387, (2), 307-317; Saha, A.; Goldstein, S.; Cabelli, D.; Czapski, G., Determination of optimal conditions for synthesis of peroxynitrite by mixing acidified hydrogen peroxide with nitrite. Free Radical Biology & Medicine 1998, 24, (4), 653-659; and Uppu, R. M.; Squadrito, G. L.; Cueto, R.; Pryor, W. A., Selecting the most appropriate synthesis of peroxynitrite. […] Peroxynitrite concentrations were determined spectrophotometrically at 302 nm (ε302=1670 L mol^−1 cm^−1). […] In this manner, the concentration of peroxynitrite was determined to be 95 mM. […] Nitrite and nitrate anions were detected and quantified by measuring the absorbance decrease (indirect UV detection) at 310 nm. […] Concentrations of hydrogen peroxide in the peroxynitrite before and after treatment with MnO2 were measured by PeroXOquant Quantitative peroxide assay kit (Pierce Biotechnology), an assay based on the oxidation of Fe^2+ to Fe^3+ by H2O2 under acidic conditions. […]

Take “iron(III) chloride meso-tetrakis-2(N-(N-(2-methoxyethyl)acetamido)pyridyl porphyrin [Test porphyrin]”: the kcat turned out to be 1.4e+07 M⁻¹ s⁻¹.
